Measured values from ChEMBL document CHEMBL1201862, “PubChem BioAssay data set” (2004).
Active and inactive are the calls of the source.

Key:
[1] = biological target: Heat shock protein HSP 90-alpha (Homo sapiens, UniProt P07900); type: functional, organism-based
[2] = Counterscreen for AddAB inhibitors: absorbance-based bacterial cell-based high throughput dose response assay for inhibitors of bacterial viability. [Related pubchem assays (depositor defined):AID435030, AID449728, AID449731, AID488942, AID488955, AID488956]; type: functional
[3] = luciferase reporter signal suppression in cells – H4 neuroglioma cells, luminescence, dose response (AID 1990); type: functional, cell-based
[4] = HEK-293T viability loss after treatment – luminescence, T-cell screen hits, cytotoxicity control for TCR NF-kB inhibitor project, dose response (AID 489026); type: functional, cell-based;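 also: cells exposed to compound about 14 hours before the viability readout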
[5] = luciferase reporter signal reduction – luminescence, H4-C neuroglioblastoma cells, dose response (AID 2458); type: functional, cell-based;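 also: H4 neuroglioblastoma cells stably carrying a luciferase reporter gene fusion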
[6] = system: BJ; test: BJ-TERT-LT-ST fibroblast viability loss – cell-based, RAS-independent, luminescence, dose response (AID 1935); type: functional; details: Homo sapiens;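 also: BJ fibroblasts immortalized with TERT plus LT and ST oncogenes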
[7] = system: Vero; test: cells; type: functional; details: Chlorocebus sabaeus
[8] = decrease of insulin promoter-GFP reporter – imaging, high-content screening, mouse beta cells (AID 1628); type: functional; details: MIN6
[9] = system: BJ; test: growth inhibition of engineered Ras-driven BJ cells – cell-based, alamar blue fluorescence, cherrypicked samples, dose response (AID 2631); type: functional; details: Homo sapiens;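 also: confirmatory dose-response assay in RAS-dependent BJ fibroblasts engineered with TERT, LT and ST, with cytotoxicity read by fluorescence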
[10] = cells; type: functional, cell-based
[11] = Luminescence Cell-Based Dose Response HTS to Identify Inhibitors of 5'UTR Stem-Loop Driven Prion Protein mRNA Translation in H4 Neuroglioblastoma Cells. [Related pubchem assays: 1827 (Project Summary), 1813 (Primary HTS)]; type: functional
[12] = system: BJ; test: cells; type: functional, cell-based; details: Homo sapiens
[13] = biological target: Exodeoxyribonuclease V (Escherichia coli (strain K12), UniProt P04993+P07648+P08394); test: RecBCD inhibition via phage-restricted bacterial growth – absorbance, V66 E. coli, mutant T4 phage, counter-screen for AddAB inhibitor project, dose response (AID 492957); type: functional, cell-based, Escherichia coli str. K-12 substr. MG1655
[14] = system: Streptococcus sp. 'group A'; test: Streptococcus pyogenes SK(-)GAS viability under kanamycin – luminescence, BacTiterGlo, confirmation, counter-screen for streptokinase expression inhibitor project, dose response (AID 1900); type: functional, organism-based
[15] = DRD fibroblast viability loss – cell-based, non-viral oncogenic, luminescence, dose response (AID 1934); type: functional; details: Homo sapiens
[16] = system: Streptococcus; test: GAS UMAA2166 growth inhibition – luminescence, BacTiterGlo, counter-screen for streptokinase expression inhibitor project, dose response (AID 1915); type: functional, organism-based;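 also: potency for reduction of bacterial viability or growth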
[17] = MIN6 cell viability loss – mouse insulinoma, cytotoxicity control, dose response (AID 2122); type: functional;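 also: confirmatory high-throughput counterscreen run to flag cytotoxic compounds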
[18] = system: BJ; test: BJ-TERT fibroblast viability loss – cell-based, RAS-independent, luminescence, dose response (AID 1933); type: functional; details: Homo sapiens
[19] = biological target: T1, Heat shock factor protein 1 (Mus musculus, UniProt P38532); test: enhancement of HSF1-driven luciferase signal – cell-based, NIH3T3, luminescence, dose retest, confirmation (AID 435004); type: functional;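 also: stress induced by proteasome inhibitor MG132 added 30 min after compound; luciferase reporter driven by HSF1 response element in NIH3T3 cells; actives raise luminescence as potentiators of the MG132 stress response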
T1 sequence (P38532 whole entry): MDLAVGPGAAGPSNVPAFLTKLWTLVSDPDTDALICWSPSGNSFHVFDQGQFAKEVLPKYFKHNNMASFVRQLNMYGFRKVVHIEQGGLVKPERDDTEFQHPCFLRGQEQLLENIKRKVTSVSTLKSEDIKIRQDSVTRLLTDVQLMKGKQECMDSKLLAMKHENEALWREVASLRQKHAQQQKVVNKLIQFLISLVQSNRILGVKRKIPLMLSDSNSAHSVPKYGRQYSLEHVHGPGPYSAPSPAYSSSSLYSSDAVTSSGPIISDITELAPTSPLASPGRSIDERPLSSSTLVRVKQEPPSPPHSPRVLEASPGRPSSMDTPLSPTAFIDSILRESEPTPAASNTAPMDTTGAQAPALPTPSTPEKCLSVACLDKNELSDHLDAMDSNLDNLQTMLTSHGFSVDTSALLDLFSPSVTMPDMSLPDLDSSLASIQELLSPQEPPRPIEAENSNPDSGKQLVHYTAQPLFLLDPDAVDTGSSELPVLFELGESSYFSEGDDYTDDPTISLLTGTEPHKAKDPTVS

[20] = system: Vero; test: cells; type: functional, cell-based; details: Chlorocebus sabaeus
[21] = alpha-synuclein stem-loop luciferase translation blockers – H4 neuroglioma cells, luminescence, confirmation (AID 1988); type: functional, cell-based
[22] = alpha-synuclein stem-loop translation blockers – luminescence, H4 neuroglioblastoma cells, dose confirmation, confirmation (AID 2454); type: functional, cell-based;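 also: H4 neuroglioblastoma cells carrying an alpha-synuclein 5'UTR luciferase reporter; potency for inhibition of the luciferase signal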
[23] = biological target: Delta-type opioid receptor (Homo sapiens, UniProt P41143); test: Counterscreen for agonists of heterodimerization of the mu 1 (OPRM1) and delta 1 (OPRD1) opioid receptors: Luminescence-based cell-based high throughput dose response assay to identify agonists of OPRD1 homodimerization. [Related pubchem assays (depositor defined):AID504326, AID504355, AID504692, AID504904, AID504905]; type: functional
Delta-type opioid receptor, sequence (P41143 whole entry): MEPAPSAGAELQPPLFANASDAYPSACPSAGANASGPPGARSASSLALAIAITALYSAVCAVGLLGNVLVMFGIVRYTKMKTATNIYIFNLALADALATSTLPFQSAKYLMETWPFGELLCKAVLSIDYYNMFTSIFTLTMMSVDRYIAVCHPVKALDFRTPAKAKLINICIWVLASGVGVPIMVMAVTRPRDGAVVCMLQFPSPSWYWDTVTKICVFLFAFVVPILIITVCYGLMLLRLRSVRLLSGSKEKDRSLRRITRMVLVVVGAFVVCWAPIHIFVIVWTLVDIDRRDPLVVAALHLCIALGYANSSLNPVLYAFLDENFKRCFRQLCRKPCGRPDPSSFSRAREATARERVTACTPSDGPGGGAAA

[24] = biological target: T2, Short transient receptor potential channel 4 (Mus musculus, UniProt Q9QUQ5); test: calcium entry via TRPC4 opening agents – cell-based, HEK293 TRPC4/mu-opioid, Fluo-4 calcium, dose response (AID 434937); type: functional
T2 sequence (Q9QUQ5 whole entry): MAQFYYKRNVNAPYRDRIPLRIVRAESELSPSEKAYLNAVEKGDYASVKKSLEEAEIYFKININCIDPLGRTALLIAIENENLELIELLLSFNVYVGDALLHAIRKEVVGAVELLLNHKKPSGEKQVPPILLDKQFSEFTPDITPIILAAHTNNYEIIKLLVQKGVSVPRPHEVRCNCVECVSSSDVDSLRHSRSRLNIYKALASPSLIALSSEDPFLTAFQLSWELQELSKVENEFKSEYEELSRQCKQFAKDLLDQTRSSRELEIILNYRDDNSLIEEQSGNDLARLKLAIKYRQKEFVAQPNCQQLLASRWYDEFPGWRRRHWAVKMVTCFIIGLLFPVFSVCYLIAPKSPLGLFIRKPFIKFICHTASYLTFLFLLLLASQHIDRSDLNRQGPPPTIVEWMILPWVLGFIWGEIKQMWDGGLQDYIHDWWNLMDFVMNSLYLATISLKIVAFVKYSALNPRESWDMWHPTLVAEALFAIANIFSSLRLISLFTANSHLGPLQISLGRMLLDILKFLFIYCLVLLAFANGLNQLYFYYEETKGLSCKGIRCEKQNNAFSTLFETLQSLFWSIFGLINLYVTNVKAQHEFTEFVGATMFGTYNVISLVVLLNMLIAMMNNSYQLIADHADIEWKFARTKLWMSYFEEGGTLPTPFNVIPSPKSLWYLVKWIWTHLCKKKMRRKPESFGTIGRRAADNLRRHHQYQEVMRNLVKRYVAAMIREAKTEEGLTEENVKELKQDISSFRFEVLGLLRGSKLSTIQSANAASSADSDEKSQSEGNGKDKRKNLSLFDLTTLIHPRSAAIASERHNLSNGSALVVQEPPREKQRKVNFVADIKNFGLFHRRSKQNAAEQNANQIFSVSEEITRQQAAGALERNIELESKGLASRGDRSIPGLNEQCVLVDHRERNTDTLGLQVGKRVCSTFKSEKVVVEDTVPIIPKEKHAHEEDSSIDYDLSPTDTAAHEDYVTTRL

[25] = biological target: Mu-type opioid receptor (Homo sapiens, UniProt P35372); test: Counterscreen for agonists of heterodimerization of the mu 1 (OPRM1) and delta 1 (OPRD1) opioid receptors: Luminescence-based cell-based high throughput dose response assay to identify agonists of OPRM1 homodimerization.; type: functional;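 also: U2OS cells expressing OPRM1 and beta-arrestin as split beta-galactosidase partners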
Mu-type opioid receptor, sequence (P35372 whole entry): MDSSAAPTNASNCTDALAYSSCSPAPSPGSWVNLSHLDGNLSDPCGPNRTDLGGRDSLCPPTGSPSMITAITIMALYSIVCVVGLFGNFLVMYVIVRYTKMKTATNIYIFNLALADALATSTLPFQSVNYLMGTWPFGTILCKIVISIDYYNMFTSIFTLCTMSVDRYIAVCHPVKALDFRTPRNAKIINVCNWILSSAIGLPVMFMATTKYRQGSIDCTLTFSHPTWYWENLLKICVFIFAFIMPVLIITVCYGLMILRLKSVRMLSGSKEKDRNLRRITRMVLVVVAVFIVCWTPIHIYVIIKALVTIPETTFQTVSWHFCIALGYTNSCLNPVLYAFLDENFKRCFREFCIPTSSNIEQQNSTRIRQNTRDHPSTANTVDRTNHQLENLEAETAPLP

[26] = biological target: 5-hydroxytryptamine receptor 5A (Homo sapiens, UniProt P47898); test: Counterscreen for agonists of OPRM1-OPRD1 heterodimerization: luminescence-based cell-based high throughput dose response assay to identify agonists of 5-hydroxytryptamine (serotonin) 5A receptor (HTR5A). [Related pubchem assays (depositor defined):AID504326, AID504355, AID504692, AID504904, AID504905]; type: functional
5-hydroxytryptamine receptor 5A, sequence (P47898 whole entry): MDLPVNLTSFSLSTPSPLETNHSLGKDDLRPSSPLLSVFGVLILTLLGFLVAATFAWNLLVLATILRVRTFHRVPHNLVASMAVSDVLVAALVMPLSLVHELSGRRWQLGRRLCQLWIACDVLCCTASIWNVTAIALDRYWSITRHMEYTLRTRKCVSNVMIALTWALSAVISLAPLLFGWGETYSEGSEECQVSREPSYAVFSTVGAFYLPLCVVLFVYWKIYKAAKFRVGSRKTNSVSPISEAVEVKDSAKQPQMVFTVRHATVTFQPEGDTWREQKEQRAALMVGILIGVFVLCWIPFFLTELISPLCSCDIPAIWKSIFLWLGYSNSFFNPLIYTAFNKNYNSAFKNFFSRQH

[27] = biological target: Voltage-gated inwardly rectifying potassium channel KCNH2 (Homo sapiens, UniProt Q12809); details: Potency;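 also: confirmatory quantitative high-throughput screen measuring inhibition of hERG channel activity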
Voltage-gated inwardly rectifying potassium channel KCNH2, sequence (Q12809 whole entry): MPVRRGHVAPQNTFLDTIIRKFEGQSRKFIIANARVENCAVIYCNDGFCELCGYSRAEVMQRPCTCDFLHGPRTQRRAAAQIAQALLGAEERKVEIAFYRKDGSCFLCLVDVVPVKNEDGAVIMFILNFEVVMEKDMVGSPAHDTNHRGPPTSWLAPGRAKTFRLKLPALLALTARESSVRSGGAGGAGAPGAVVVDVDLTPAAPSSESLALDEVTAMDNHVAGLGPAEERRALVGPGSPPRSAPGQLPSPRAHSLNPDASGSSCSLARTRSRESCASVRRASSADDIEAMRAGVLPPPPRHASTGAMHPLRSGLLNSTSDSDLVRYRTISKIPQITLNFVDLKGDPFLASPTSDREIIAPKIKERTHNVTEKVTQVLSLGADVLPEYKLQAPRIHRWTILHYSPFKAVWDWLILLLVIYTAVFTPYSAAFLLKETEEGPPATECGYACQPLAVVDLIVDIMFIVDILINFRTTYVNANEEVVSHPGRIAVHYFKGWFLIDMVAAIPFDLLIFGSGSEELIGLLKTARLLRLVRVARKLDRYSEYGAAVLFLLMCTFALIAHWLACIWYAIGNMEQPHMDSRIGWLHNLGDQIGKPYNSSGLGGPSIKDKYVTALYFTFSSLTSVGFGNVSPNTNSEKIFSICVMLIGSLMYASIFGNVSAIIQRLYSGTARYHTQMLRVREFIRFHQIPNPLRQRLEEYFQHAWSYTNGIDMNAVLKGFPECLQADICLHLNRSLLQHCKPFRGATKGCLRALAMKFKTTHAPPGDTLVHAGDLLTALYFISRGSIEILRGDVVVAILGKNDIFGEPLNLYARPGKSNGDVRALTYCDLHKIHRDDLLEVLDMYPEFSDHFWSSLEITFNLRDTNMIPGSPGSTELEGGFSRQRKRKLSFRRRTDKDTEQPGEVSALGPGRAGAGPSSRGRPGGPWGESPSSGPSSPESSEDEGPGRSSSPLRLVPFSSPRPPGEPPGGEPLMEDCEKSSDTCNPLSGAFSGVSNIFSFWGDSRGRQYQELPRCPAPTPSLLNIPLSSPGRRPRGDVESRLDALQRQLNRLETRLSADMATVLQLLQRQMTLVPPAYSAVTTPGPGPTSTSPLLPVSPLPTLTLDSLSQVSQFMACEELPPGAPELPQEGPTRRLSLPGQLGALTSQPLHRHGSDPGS

[28] = biological target: Glyceraldehyde-3-phosphate dehydrogenase (Homo sapiens, UniProt P04406)
Glyceraldehyde-3-phosphate dehydrogenase, sequence (P04406 whole entry): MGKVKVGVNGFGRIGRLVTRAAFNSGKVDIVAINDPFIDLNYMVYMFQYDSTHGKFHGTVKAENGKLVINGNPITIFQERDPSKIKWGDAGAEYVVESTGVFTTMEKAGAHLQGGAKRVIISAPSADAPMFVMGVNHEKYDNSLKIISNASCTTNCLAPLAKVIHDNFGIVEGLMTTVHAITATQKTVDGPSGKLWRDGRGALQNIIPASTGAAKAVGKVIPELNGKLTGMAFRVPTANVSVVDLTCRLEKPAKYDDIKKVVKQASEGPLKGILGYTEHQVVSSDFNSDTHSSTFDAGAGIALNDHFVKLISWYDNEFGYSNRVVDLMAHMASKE

[29] = biological target: T3, Dual specificity protein phosphatase 6 (Rattus norvegicus, UniProt Q64346)
T3 sequence (Q64346 whole entry): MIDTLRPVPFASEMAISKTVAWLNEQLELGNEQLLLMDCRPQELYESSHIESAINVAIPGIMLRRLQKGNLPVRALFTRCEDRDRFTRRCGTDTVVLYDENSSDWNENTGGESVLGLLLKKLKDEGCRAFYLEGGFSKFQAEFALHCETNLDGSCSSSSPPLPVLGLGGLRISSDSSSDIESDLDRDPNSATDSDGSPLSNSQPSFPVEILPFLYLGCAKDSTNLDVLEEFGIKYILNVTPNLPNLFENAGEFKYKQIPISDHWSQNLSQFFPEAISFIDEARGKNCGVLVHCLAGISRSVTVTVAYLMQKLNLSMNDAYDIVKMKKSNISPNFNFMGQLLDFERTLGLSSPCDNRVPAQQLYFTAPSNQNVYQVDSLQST

[30] = biological target: T3, Dual specificity protein phosphatase 6; type: functional
[31] = biological target: T4, Tyrosine-protein phosphatase non-receptor type 7 (Homo sapiens, UniProt P35236); type: functional
T4 sequence (P35236 whole entry): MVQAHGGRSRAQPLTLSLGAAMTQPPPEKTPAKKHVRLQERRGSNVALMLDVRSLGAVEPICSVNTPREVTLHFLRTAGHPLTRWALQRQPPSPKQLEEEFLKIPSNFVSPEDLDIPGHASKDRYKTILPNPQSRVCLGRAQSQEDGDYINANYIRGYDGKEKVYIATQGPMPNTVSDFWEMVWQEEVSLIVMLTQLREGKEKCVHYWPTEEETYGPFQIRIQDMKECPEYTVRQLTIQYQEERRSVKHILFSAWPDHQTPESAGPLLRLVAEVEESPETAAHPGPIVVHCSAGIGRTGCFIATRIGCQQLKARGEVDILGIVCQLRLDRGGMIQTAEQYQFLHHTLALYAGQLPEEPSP

Oc1ccccc1N=Nc1nc(-c2ccccc2)c(-c2ccccc2)[nH]1
AC50 [1]: 2.29 µM (active) | IC50 [2]: > 119 µM (inactive) | EC50 [3]: < 0.1 µM (active) | IC50 [4]: > 80 µM (inactive) | EC50 [5]: 0.282 µM (active) | EC50 [6]: 1.67 µM (active) | CC50 [7]: 0.06 µM (active) | IC50 [8]: 0.533 µM (active) | EC50 [9]: 0.118 µM (active) | EC50 [10]: 0.355 µM (active) | EC50 [11]: 0.103 µM (active) | EC50 [12]: 0.951 µM (active) | IC50 [13]: > 119 µM (inactive) | EC50 [14]: 0.278 µM (active) | EC50 [15]: 0.515 µM (active) | EC50 [16]: 1.05 µM (active) | IC50 [17]: 0.82 µM (active) | EC50 [18]: 0.643 µM (inconclusive) | EC50 [19]: 26 µM (active) | IC50 [20]: > 25 µM (active) | EC50 [21]: < 0.1 µM (active) | EC50 [22]: 0.507 µM (active)

COc1ccc(C(CNC(=O)CSc2ccccc2C)N(C)C)cc1 (stereo unspecified)
EC50 [23]: > 92.5 µM (inactive) | EC50 [24]: 0.237 µM (active) | EC50 [25]: > 92.5 µM (inactive) | EC50 [26]: > 92.5 µM (inactive)

Cc1cccc(C)c1OCC(N)C(C)C (stereo unspecified)
AC50 [27]: 35.5 µM (inconclusive)

Cn1c(=O)n(-c2ccccc2)c(=O)n([C@@H](Cc2ccccc2)C(N)=O)c1=O
IC50 [28]: > 100 µM (not active) | IC50 [29]: > 100 µM (inactive) | IC50 [30]: > 100 µM (inactive) | IC50 [31]: > 100 µM (not active)
